Measurements from patent US9612237B2, “Ritalinic acid immunoassay” (Randox Laboratories Limited, priority 2013, dated 2017).
Counter-ions that a name gives are not always drawn.

system: antisera generated in response to immunogen of Example 11; assay: Competitive chemiluminescent biochip immunoassay, antisera raised against immunogen of Example 11, conjugate of Example 12; assay type: binding, sheep; details: not given

| SMILES | Concentration exhibiting no cross-reactivity [µg/mL] |
| --- | --- |
| CN1CCCC1c1cccnc1 (single isomer, unassigned; (-)) [(−)-nicotine] | 22 |
| Oc1cccc(N2CCNCC2)c1 [1-(3-hydroxyphenyl)-piperazine] | 0.4 |
| CC(=O)Nc1ccc(O)c(SC[C@H](NC(C)=O)C(=O)[O-])c1.[Na+] [3-(N-acetyl-L-cystein-s-yl) acetaminophen sodium salt] | 250 |
| CC(=O)Nc1ccc(O)c(SC[C@H](N)C(=O)O)c1.O=C(O)C(F)(F)F [3-cysteinylacetaminophen trifluoroacetic acid salt] | 250 |
| CC(=O)Nc1ccc(OS(=O)(=O)[O-])cc1.[K+] [4-acetaminophen sulphate potassium salt] | 250 |
| Cl.NC1CCC(c2ccc(Cl)c(Cl)c2)c2ccccc21 (centres unmarked) [N-desmethyl sertraline HCl] | 10 |
| CN1C(=O)CN=C(c2ccccc2)c2cc(Cl)ccc21 [diazepam] | 3 |
| COc1ccc2cc([C@H](C)C(=O)O)ccc2c1 [naproxen] | 250 |
| CNCCC=C1c2ccccc2CCc2ccccc21 [nortriptyline HCl] | 10 |
| CN(C(=O)O[C@@H]1O[C@H](C(=O)O)[C@@H](O)[C@H](O)[C@H]1O)[C@H]1CC[C@@H](c2ccc(Cl)c(Cl)c2)c2ccccc21 [sertraline carbamoyl glocuronide] | 3 |
| O=c1n(CCC[N+]2([O-])CCN(c3cccc(Cl)c3)CC2)nc2ccccn12 [trazodone N-oxide] | 0.4 |

same assay, conditions: biochip; relative to methylphenidate = 100

| SMILES | % cross reactivity [%] |
| --- | --- |
| CCOC(=O)[C@@H](c1ccccc1)[C@H]1CCCCN1.Cl (racemic) [rac-erythro-ethylphenidate HCl] | 1.9 |
| CN[C@@H](C)[C@@H](O)c1ccccc1.Cl [(+)-pseudoephedrine HCl] | 0.2 |
| c1ccc(C2(N3CCCCC3)CCCCC2)cc1 [PCP] | <0.1 |
| CCN(CC)CCN1C(=O)CN=C(c2ccccc2F)c2cc(Cl)ccc21 [flurazepam] | <1 |

same assay, conditions: value is the concentration at which no cross-reactivity was exhibited

| SMILES | Concentration exhibiting no cross-reactivity [µg/mL] |
| --- | --- |
| CNCC1CCCCC1(O)c1cccc(O)c1 (racemic) [rac N,O-didesmethyl tramadol] | 0.18 |
| COc1cccc(C2(O)CCCCC2CN)c1.Cl (racemic) [rac N-bisdesmethyl tramadol HCl] | 0.18 |
| CC(C(=O)O)c1ccc(CC(C)(C)O)cc1 (racemic) [rac-2-hydroxy ibuprofen] | 125 |
| CCC(=O)OC(Cc1ccccc1)(c1ccccc1)C(C)CNC.O=C(O)/C=C\C(=O)O (single isomer, unassigned; (+)) [(+)-norpropoxyphene maleate] | 10 |
| c1ccc(CN2CCNCC2)cc1 [1-benzylpiperiazine] | 10 |
| O=C(O)c1cccc(O)c1O [2,3-dihydroxy benzoic acid] | 250 |
| COc1ccc2c(c1)[C@@]13CCCC[C@H]1[C@@H](C2)NCC3.Cl [3-methoxymorphinan HCl] | 0.25 |
| CC(=O)Nc1ccc(O[C@@H]2O[C@H](C(=O)[O-])[C@@H](O)[C@H](O)[C@H]2O)cc1.[Na+] [4-acetamidophenyl β-D-glucuronide sodium salt] | 250 |
| Nc1ccc(C(=O)O)c(O)c1 [4-aminosalicylic acid] | 250 |
| CN1C(=O)CN=C(c2ccccc2F)c2cc(N)ccc21 [7-NH flunitrazepam] | 10 |
| CC(C)Cc1ccc([C@@H](C)C(=O)O)cc1 [(R)-(−)-ibuprofen] | 250 |
| CN(C)CCC[C@]1(c2ccc(F)cc2)OCc2cc(C#N)ccc21.O=C(O)C(=O)O [(R)-citalopram oxalate] | 1.5 |
| CN1C(=O)CC[C@H]1c1cccnc1 [(−)-cotinine] | 22 |
| C[C@H](N)Cc1ccccc1 [D-amphetamine] | 10 |
| O=C[C@H](O)[C@@H](O)[C@H](O)[C@H](O)C(=O)O [D-glucuronic acid] | 60 |
| CCN(CC)C(=O)[C@@H]1C=C2c3cccc4[nH]cc(c34)C[C@H]2N(C)C1 [LSD] | 10 |
| CN[C@@H](C)Cc1ccccc1 [MAMP] | 2.5 |
| CNC(C)Cc1ccc2c(c1)OCO2 (centres unmarked) [MDMA] | 5 |
| CC(=O)N=C1C=CC(=O)C=C1 [N-acetylbenzoquinomeimine] | 125 |
| Oc1ccc2c(c1)[C@@]13CCCC[C@H]1[C@@H](C2)NCC3 [N-desmethyl dextorphan] | 0.25 |
| Br.CNCCC[C@@]1(c2ccc(F)cc2)OCc2cc(C#N)ccc21 [N-desmethyl escitalopram hydrobromide] | 10 |

| SMILES | Concentration exhibiting no cross-reactivity [µg/mL] |
| --- | --- |
| CC(C)Cc1ccc(C(C)C(=O)O)cc1 (stereo not drawn) [S-(+)-ibuprofen] | 250 |
| CC(=O)Oc1ccccc1C(=O)O [aspirin] | 250 |
| CC(=O)Nc1ccc(OC(=O)c2ccccc2OC(C)=O)cc1 [benorylate HCl] | 250 |
| O=C(O)c1ccccc1 [benzoic acid] | 250 |
| COc1ccc2c3c1O[C@H]1[C@@H](O)C=C[C@H]4[C@@H](C2)N(C)CC[C@@]341 [codeine] | 0.25 |
| CCCCCc1cc(O)c2c(c1)OC(C)(C)[C@@H]1CCC(C)=C[C@@H]21 [delta-9-THC] | 10 |
| COc1ccc2c(c1)[C@]13CCCC[C@@H]1[C@H](C2)N(C)CC3 [dextromethorphan hydrobromide monohydrate] | 10 |
| O=C(O)c1cc(-c2ccc(F)cc2F)ccc1O [diflusinal] | 250 |
| CCc1nn(CCCN2CCN(c3cccc(Cl)c3)CC2)c(=O)n1CC [etoperidone HCl] | 0.4 |
| CNCCC(Oc1ccc(C(F)(F)F)cc1)c1ccccc1 (centres unmarked) [fluoxetine HCl] | 10 |
| O=C(O)c1cc(O)ccc1O [gentisic acid] | 250 |
| O=C(O)CNC(=O)c1cc(O)ccc1O [gentisuric acid] | 250 |
| CC(=O)Oc1ccc2c3c1O[C@H]1[C@@H](OC(C)=O)C=C[C@H]4[C@@H](C2)N(C)CC[C@@]341 [heroin] | 10 |
| COc1ccc2c3c1O[C@H]1C(=O)CC[C@H]4[C@@H](C2)N(C)CC[C@]314 [hydrocodone] | 10 |
| CC(C)Cc1ccc(CC(=O)O)cc1 [ibufenac] | 250 |
| CC(Cc1ccc(C(C)C(=O)O)cc1)C(=O)O (centres unmarked) [ibuprofen carboxylic acid] | 250 |
| CC(C(=O)O)c1cccc(C(=O)c2ccccc2)c1 (centres unmarked) [ketoprofen] | 250 |
| CN1CC[C@]23CCCC[C@H]2[C@H]1Cc1ccc(O)cc13 [levorphanol] | 0.25 |
| O=C1Nc2ccc(Cl)cc2C(c2ccccc2Cl)=NC1O (centres unmarked) [lorazepam] | 3 |
| CCC(C)C(C)(COC(N)=O)COC(N)=O (centres unmarked) [mebutamate] | 0.35 |
| CCCC(C)(COC(N)=O)COC(N)=O [meprobamate] | 10 |

| SMILES | Concentration exhibiting no cross-reactivity [µg/mL] |
| --- | --- |
| COc1ccc(NC(C)=O)cc1 [methacetin] | 250 |
| CCC(=O)C(CC(C)N(C)C)(c1ccccc1)c1ccccc1 (centres unmarked) [methadone] | 10 |
| Cc1ccccc1-n1c(C)nc2ccccc2c1=O [methaqualone] | 10 |
| COC(=O)c1ccccc1O [methyl salicylate] | 250 |
| O=C1CN=C(c2ccccc2)c2cc(Cl)ccc2N1 [nordiazepam] | 3 |
| CCOC(=O)C1(c2ccccc2)CCNCC1 [normeperidine] | 1 |
| COc1ccc2c3c1O[C@H]1C(=O)CC[C@@]4(O)[C@@H](C2)N(C)CC[C@]314 [oxycodone] | 10 |
| CCOc1ccc(N)cc1 [p-phenetidine] | 106.35 |
| Oc1ccc(C(F)(F)F)cc1 [p-trifluoromethylphenol] | 2.5 |
| CCOc1ccc(NC(C)=O)cc1 [phenacetin] | 250 |
| NCCc1ccccc1.O=S(=O)(O)O [phenethylamine sulfate] | 250 |
| O=C(Oc1ccccc1C(=O)O)c1ccccc1O [salsalate] | 250 |
| CN[C@H]1CC[C@@H](c2ccc(Cl)c(Cl)c2)c2ccccc21 [sertaline] | 7.5 |
| CN1C(=O)C(O)N=C(c2ccccc2)c2cc(Cl)ccc21 (centres unmarked) [temazepam] | 3 |
| COc1cccc(C2(O)CCCCC2CN(C)C)c1 (centres unmarked) [tramadol HCl] | 10 |
| O=c1n(CCCN2CCN(c3cccc(Cl)c3)CC2)nc2ccccn12 [trazodone HCl] | 10 |
| O=C(O)C(Cl)(Cl)Cl [trichloroacetic acid] | 100 |
| O=C(O)[C@H]1O[C@@H](OCC(Cl)(Cl)Cl)[C@H](O)[C@@H](O)[C@@H]1O [urochloralic acid] | 100 |
| COc1ccc(C(CN(C)C)C2(O)CCCCC2)cc1 (centres unmarked) [venlafaxine HCl] | 0.18 |
| CCN(C(C)=O)c1cccc(-c2ccnc3c(C#N)cnn23)c1 [zaleplon] | 10 |
